The results in this text go back to EP2682119A1, “Aromatic N-heterocycle derivatives for use as medicine” (Université Libre de Bruxelles, priority 2012, dated 2014).

Counter-ions that a name gives are not always drawn. Like-named read-outs stand apart in the source and are kept apart here.

In general, IC50 refers to the midpoint of a concentration-inhibition curve. For orientation: Ki means the equilibrium dissociation constant of an inhibitor or competing ligand from its target. Read a low Ki as higher affinity.

For experiment [1], the target named is T1, LDL oxidation carried out by MPO (Homo sapiens, UniProt P05164).
T1 construct: made in house
T1 sequence (P05164 49-745): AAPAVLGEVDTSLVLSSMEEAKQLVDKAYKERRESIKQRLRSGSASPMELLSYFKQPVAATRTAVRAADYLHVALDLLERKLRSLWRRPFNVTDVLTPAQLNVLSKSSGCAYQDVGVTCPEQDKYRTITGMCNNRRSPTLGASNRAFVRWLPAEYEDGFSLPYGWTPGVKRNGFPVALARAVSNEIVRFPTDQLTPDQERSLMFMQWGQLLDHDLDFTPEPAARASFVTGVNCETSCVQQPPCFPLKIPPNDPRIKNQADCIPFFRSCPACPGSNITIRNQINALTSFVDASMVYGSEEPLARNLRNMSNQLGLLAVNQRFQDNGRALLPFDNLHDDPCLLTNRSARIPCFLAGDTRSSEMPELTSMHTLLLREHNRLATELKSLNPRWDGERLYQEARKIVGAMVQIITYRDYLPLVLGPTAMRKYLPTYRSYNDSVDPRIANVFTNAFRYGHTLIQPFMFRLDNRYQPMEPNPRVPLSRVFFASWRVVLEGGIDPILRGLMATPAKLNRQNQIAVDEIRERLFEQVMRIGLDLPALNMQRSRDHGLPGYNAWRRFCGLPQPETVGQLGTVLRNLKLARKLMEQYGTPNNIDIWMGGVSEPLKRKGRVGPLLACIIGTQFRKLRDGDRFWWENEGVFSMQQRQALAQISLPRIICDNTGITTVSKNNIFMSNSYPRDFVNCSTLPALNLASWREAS
The experiment in a line: Inhibition of LDL oxidation by MPO, ELISA with Mab AG9. The format is biochemical. The protocol:
Low-density lipoproteins oxidation inhibition
Preparation of the Recombinant Enzyme and of LDL
(§1) Recombinant MPO was prepared as previously described. Each batch solution is characterized by its protein concentration (mg/mL), its activity (U/mL), and its specific activity (U/mg). The chlorination activity was determined according to Hewson and Hager. […] The different steps were carried out in the dark, and the protein concentration was measured by the Lowry assay for both MPO and LDL.
Inhibition of LDL Oxidation
LDL oxidation was carried out at 37 °C in a final volume of 500 µL. The reaction mixture contained the following reagents at the final concentrations indicated between brackets: pH 7.2, PBS buffer, MPO (1 µg/mL), LDL (1000 µg/mL), 2 µL 1 N HCl (4 mM), one of the drugs at different concentrations, and H2O2 (100 µM). The reaction was stopped after 5 min by cooling the tubes in ice. The assay was performed as described by Moguilevsky et al. in a NUNC maxisorp plate (VWR, Zaventem, Belgium): 200 ng/well of LDL was coated overnight at 4 °C in a sodium bicarbonate pH 9.8 buffer (100 µL) Afterward, the plate was washed with TBS 80 buffer and then saturated during 1 h at 37 °C with the PBS buffer containing 1% BSA (150 µL/well). […] After incubation for 1 h at 37 °C, the plate was washed four times with the TBS 80 buffer and a 3000 times diluted solution of IgG antimouse alkaline phosphatase (Promega, Leiden, The Netherlands) in the same buffer was added (100 µL/well). The wells were washed again four times and a revelation solution (150 µL/well) containing 5 mg of para-nitrophenyl phosphate in 5 mL of diethanolamine buffer was added for 30 min at room temperature. The reaction was stopped with 60 µL/well of 3 N NaOH solution. […] Results were expressed as IC50.
In general terms: In an ELISA, binding on a coated surface is turned into a signal by an enzyme label.

A further experiment deals with T2, recombinant MPO (Homo sapiens, UniProt P05164).
T2 construct: made in house
T2 sequence (P05164 49-745): T1 sequence (P05164 49-745)
In words: Myeloperoxidase inhibition (MPO) assay, taurine chloramine production by the MPO/H2O2/Cl- system. The format is biochemical. As to conditions: for inhibition properties against myeloperoxidase enzyme: compared with the corresponding compound wherein the fluor atom is at position 5 on the indole ring. As for the experimental part:
Myeloperoxidase inhibition (MPO) assay procedure
The assay was based on the production of taurine chloramine produced by the MPO/H2O2/Cl- system in the presence of a selected inhibitor at defined concentration. The reaction mixture contained the following reagents in a final volume of 200 µL: pH 7.4 phosphate buffer (10 mM PO4^3-/300 mM NaCl), taurine (15 mM), the compound to be tested (up to 20 µM), and the fixed amount of the recombinant MPO (6.6 µL of MPO batch solution diluted 2.5 times, 40 nM). When necessary, the volume was adjusted with water. This mixture was incubated at 37 °C and the reaction initiated with 10.0 µL of H2O2 (100 µM). After 5 min, the reaction was stopped by the addition of 10 µL of catalase (8 U/µL).
as §1

For experiment [2], the target named is T3, human 5-HT transporter (hSERT) (Homo sapiens, UniProt P31645).
T3 construct: expressed in transfected cells; host or cells: HEK-293 MSR cells (Invitrogen), plasmid pcDNA3.1-hSERT
T3 sequence (P31645 whole entry): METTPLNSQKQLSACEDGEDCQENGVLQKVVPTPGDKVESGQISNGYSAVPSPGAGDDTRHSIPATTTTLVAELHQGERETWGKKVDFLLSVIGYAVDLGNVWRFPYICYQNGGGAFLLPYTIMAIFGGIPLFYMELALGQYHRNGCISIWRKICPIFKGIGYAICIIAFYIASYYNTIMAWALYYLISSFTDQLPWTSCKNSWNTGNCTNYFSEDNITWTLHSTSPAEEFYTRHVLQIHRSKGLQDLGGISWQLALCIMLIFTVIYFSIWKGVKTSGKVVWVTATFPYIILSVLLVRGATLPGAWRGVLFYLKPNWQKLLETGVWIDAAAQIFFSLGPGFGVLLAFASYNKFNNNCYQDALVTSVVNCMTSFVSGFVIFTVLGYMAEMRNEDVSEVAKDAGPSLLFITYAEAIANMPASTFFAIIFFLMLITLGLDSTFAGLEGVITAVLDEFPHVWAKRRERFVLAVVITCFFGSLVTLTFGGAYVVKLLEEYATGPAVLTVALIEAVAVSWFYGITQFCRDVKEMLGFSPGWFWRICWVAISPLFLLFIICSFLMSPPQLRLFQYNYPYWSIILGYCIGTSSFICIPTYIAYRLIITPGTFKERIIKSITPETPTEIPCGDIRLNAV
The experiment in a line: 5-HT reuptake inhibition, [3H]5-HT uptake in transfected HEK-293 MSR cells. The format is cell-based. As to conditions: serotonin reuptake inhibition. As for the experimental part: Assesment of 5-HT reuptake inhibition.
Inhibition assessment of 5-HT reuptake was performed as follows. The mammalian expression plasmid pcDNA3.1 containing human 5-HT transporter (hSERT) cDNA has been described previously. HEK-293 MSR cells (Invitrogen) were cultured as monolayers in Dulbecco's modified Eagle's medium (BioWhitaker) supplemented with 10% fetal calf serum (Invitrogen), 100 units/mL penicillin, 100 µg/mL streptomycin (BioWhitaker) and 6 µg/mL Geneticin (Invitrogen) at 95% humidity, 5% p(CO2) and 37°C. Cells were detached from the culture flasks by Versene (Invitrogen) and trypsin/EDTA (BioWhitaker) treatment for subculturing or seeding into white TC-microtiter plates (Nunc). Transfection and measurement of [^3H]5-HT (PerkinElmer Life Sciences) uptake was performed as described by Larsen et al. (2004) except that HEK-293 MSR cells (Invitrogen) were used instead of COS-1 cells.

Where [3] appears, read: inhibition of LDL oxidation, Table 2, read-out: IC50.
The mark [4] stands for this setting: inhibition of myeloperoxidase enzyme, Table 1, compounds of the invention, read-out: IC50.
The mark [5] stands for this setting: Table 3, 3-amidoindole analogues, oxidation of LDL, read-out: Mox LDL IC50.
Where [6] appears, read: Table 3, 3-amidoindole analogues, read-out: MPO IC50.

For the compound `NCCSCCc1c[nH]c2ccc(F)cc12` [Compound 32, 3-(2-(2-Aminoethylthio)ethyl)-5-fluoro-1H-indole oxalate], the results for the IC50 (in experiment [1] (setting [3]); on recombinant MPO (setting [4])) were 8 nM and 4 nM, respectively.

In experiment [2], `CCN(CCc1c[nH]c2ccc(F)cc12)S(C)(=O)=O` [Compound 35, 5-Fluoro-3-(2-(N-ethylmethanesulfonamido)ethyl)-1H-indole] had a Ki of 174 nM. Moreover, the results for the IC50 (in experiment [1] (setting [3]); at recombinant MPO (setting [4])) were 27 nM and 14 nM, respectively.

For the compound `NCCSCCCc1c[nH]c2ccc(F)cc12` [Compound 33, 3-(3-(2-Aminoethylthio)propyl)-5-fluoro-1H-indole oxalate], the IC50 in experiment [1] (setting [3]) was 21 nM.

`ONCCCc1c[nH]c2ccc(F)cc12` [Compound 45, 3-(3-N-Hydroxylaminopropyl)-5-fluoro-1H-indole] returned a Ki in experiment [2] of 20 nM. Besides, the IC50 was found to be 21 nM in experiment [1] (setting [3]) and 11 nM on recombinant MPO (setting [4]).

With `NC(=O)CCCCc1c[nH]c2ccc(F)cc12` [Compound 58, 3-(5-(pentylamido)) -5-fluoro-1H-indole], the IC50 in experiment [1] (setting [5]) was 44 nM; on recombinant MPO (setting [6]) it was 35 nM.

Consider `NCCCc1c[nH]c2c(F)cccc12.O=C(O)C(=O)O` [Compound 27, 3-(3-Aminopropyl)-7-fluoro-1H-indole oxalate], for which the “inhibition properties against myeloperoxidase enzyme” value on recombinant MPO is given as “enhanced inhibition properties”.

`NCCSCCc1c[nH]c2c(F)cccc12` [Compound 43, 3-(2-(2-Aminoethylthio)ethyl)-7-fluoro-1H-indole oxalate] registered a Ki in experiment [2] of 25 nM. For the same compound, the IC50 in experiment [1] (setting [3]) amounted to 6 nM; at recombinant MPO (setting [4]) it was 3 nM.

As for `NCCc1c[nH]c2c(F)cccc12.O=C(O)C(=O)O` [Compound 26, 3-(2-Aminoethyl)-7-fluoro-1H-indole oxalate], at recombinant MPO, the “inhibition properties against myeloperoxidase enzyme” value was “enhanced inhibition properties”.

`NC(=O)CCCCc1c[nH]c2c(F)cccc12` [Compound 57, 3-(5-(pentylamido)) -7-fluoro-1H-indole]: the IC50 is 43 nM in experiment [1] (setting [5]) and 39 nM on recombinant MPO (setting [6]).

`N#CSCCCc1c[nH]c2ccc(F)cc12` [Compound 34, 5-Fluoro-3-(3-thiocyanatopropyl) 1H-indole] displayed an inhibition constant (Ki) in experiment [2] of 212 nM. For the same compound, the IC50 amounted to 23 nM in experiment [1] (setting [3]) and 5 nM on recombinant MPO (setting [4]).

For the compound `NC(=O)CCCc1c[nH]c2c(F)cccc12` [Compound 54, 3-(4-(butylamido))-7-fluoro-1H-indole], the IC50 was determined as 24 nM in experiment [1] (setting [5]), 24 nM in experiment [1] (setting [3]) and 26 nM on recombinant MPO (setting [6]).

For `NCCCCc1c[nH]c2c(F)cccc12` [Compound 30, 3-(4-Aminobutyl)-7-fluoro-1H-indole oxalate], the IC50 in experiment [1] (setting [3]) was 21 nM; at recombinant MPO (setting [4]), 6 nM.

For the compound `NC(=O)CCCc1c[nH]c2ccc(F)cc12` [Compound 56, 3-(4-(Butylamido))-5-fluoro-1H-indole], in experiment [2], the Ki worked out at 631 nM. Also, the 50% inhibitory concentration (IC50) (in experiment [1] (setting [5]); in experiment [1] (setting [3]); on recombinant MPO (setting [6]); at recombinant MPO (setting [4])) was 18 nM each time.

Regarding `CNC(=O)CCCc1c[nH]c2ccc(F)cc12` [Compound 59, 3-(4-(N-methyl, butylamido))-5-fluoro-1H-indole], the IC50 worked out at 95 nM in experiment [1] (setting [5]) and 40 nM on recombinant MPO (setting [6]).

Take `CCN(CCCc1c[nH]c2ccc(F)cc12)S(C)(=O)=O` [Compound 36, 5-Fluoro-3-(3-(N-ethylmethanesulfonamido)propyl)-1H-indole]: the IC50 in experiment [1] (setting [3]) came out at 27 nM.
